Reference: patent publication US9783505B2, “Substituted diaminopyrimidyl compounds, compositions thereof, and methods of treatment therewith” (Signal Pharmaceuticals, LLC, priority 2013, dated 2017)

Legend:
His-PKC-theta = biological target: T1, His-PKC-theta (Homo sapiens, UniProt Q04759); assay: PKC-theta Assay (384-well time resolved fluorescence, IMAP TR-FRET); format: biochemical; conditions: read-out: Act. Level (IC50 in the PKC-theta Assay)
T1 construct: His; purchased Invitrogen
In short: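 Fam-labeled S6-derived peptide (200 nM) and 10 μM ATP were reacted with 142 pM enzyme for 2 h at room temperature in HEPES pH 7.6 buffer with MgCl2, DTT, Triton X-100, BSA and EDTA. The reaction was stopped with IMAP progressive binding reagent plus Tb donor, incubated overnight, then TR-FRET read.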

PKC delta = biological target: T2, PKC delta (Homo sapiens, UniProt Q05655); assay: PKC delta Assay (384-well time resolved fluorescence, IMAP TR-FRET); format: biochemical; conditions: selectivity for PKC-theta over PKC-delta
T2 construct: purchased Invitrogen
T2 sequence (Q05655 whole entry): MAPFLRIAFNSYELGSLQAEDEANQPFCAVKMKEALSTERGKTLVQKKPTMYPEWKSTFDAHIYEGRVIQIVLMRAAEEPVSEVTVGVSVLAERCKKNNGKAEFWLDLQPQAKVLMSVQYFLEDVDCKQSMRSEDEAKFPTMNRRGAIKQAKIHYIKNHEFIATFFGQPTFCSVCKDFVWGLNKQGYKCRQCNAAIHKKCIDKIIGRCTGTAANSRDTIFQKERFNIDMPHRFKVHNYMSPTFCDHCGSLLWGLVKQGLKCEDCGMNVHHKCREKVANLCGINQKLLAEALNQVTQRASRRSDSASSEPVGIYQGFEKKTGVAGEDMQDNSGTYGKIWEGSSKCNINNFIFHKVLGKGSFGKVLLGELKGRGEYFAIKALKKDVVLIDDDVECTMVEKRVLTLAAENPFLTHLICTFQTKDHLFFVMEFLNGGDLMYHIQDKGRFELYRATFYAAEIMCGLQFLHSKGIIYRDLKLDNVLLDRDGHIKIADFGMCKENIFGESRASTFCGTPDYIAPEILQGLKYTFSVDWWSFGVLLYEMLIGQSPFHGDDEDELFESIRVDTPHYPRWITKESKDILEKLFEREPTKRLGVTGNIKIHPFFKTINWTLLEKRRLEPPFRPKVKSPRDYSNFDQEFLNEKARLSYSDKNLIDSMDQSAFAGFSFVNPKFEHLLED
In short: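 1.5 nM enzyme with 200 nM Fam-labeled S6-derived peptide and 10 μM ATP in 50 mM HEPES pH 7.6, 10 mM MgCl2, 1 mM DTT, 0.01% Triton X-100, 0.01% BSA, 0.1 mM EDTA; 2 hours at room temperature. Stopped with IMAP binding reagent and Tb donor, incubated overnight, read by TR-FRET.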

T1 sequence (Q04759 whole entry): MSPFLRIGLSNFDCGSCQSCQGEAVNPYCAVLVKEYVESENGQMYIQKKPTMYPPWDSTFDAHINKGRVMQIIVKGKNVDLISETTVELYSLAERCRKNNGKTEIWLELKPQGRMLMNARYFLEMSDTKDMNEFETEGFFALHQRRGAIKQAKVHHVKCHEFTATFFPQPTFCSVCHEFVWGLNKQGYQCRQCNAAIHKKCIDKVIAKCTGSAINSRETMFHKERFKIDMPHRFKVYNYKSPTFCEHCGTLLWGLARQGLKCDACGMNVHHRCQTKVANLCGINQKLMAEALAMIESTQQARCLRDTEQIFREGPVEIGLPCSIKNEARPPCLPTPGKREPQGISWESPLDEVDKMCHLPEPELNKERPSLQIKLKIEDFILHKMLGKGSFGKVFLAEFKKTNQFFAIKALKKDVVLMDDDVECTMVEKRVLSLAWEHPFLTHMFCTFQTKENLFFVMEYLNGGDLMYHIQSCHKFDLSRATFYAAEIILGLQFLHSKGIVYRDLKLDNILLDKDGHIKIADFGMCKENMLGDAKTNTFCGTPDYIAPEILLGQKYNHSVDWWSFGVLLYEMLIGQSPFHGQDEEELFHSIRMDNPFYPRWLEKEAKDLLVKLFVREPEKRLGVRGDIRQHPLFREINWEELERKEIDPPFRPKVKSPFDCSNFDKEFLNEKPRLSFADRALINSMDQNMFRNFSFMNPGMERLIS

| Compound | IC50 (His-PKC-theta) | Sel. Level (ratio of IC50 PKC-delta/IC50 PKC-theta) (PKC delta) |
| --- | --- | --- |
| CC1(C)C[C@H](Nc2nc(NCC[C@]3(C)C(=O)Nc4ccccc43)ncc2C#N)CC[C@@H]1O [Cmpd 303] | 2000 to 10000 nM | H (selectivity level of 5-fold or less (selectivity level H)) |
| CC1(C)[C@@H](O)C[C@H]1Nc1nc(NCCc2c[nH]c3cc(F)ccc23)ncc1C#N [Cmpd 265] | 100 to 800 nM | G (selectivity between 5- and 20-fold (selectivity level G)) |
| CC1(C)[C@H](O)CCC[C@H]1Nc1nc(NCCC2C(=O)Nc3ccc(F)cc32)ncc1C#N (stereo partly shown) [Cmpd 314] | 100 to 800 nM | H (selectivity level of 5-fold or less (selectivity level H)) |
| CC(F)(F)COc1ncncc1CNc1ncc(C#N)c(N[C@H]2CCC[C@@](C)(O)C2)n1 [Cmpd 287] | 100 to 800 nM | F (selectivity of between 20- and 100-fold (selectivity level F)) |
| CC(F)(F)COc1ncncc1CNc1ncc(C#N)c(N[C@H]2CCC[C@H](O)C2(C)C)n1 [Cmpd 296] | 100 to 800 nM | F (selectivity of between 20- and 100-fold (selectivity level F)) |
| COc1cccc(CCNc2ncc(C#N)c(N[C@H]3CC[C@@H](O)CC3)n2)n1 [Cmpd 327] | 2000 to 10000 nM | H (selectivity level of 5-fold or less (selectivity level H)) |
| Cc1cnccc1CCNc1ncc(C#N)c(N[C@@H]2C[C@H](O)C2(C)C)n1 [Cmpd 268] | 800 to 2000 nM | G (selectivity between 5- and 20-fold (selectivity level G)) |
| CC1(C)C(O)C[C@H]1Nc1nc(NCCc2cccnc2)ncc1C#N (stereo partly shown) [Cmpd 231] | 800 to 2000 nM | G (selectivity between 5- and 20-fold (selectivity level G)) |
| CC1(C)C[C@H](Nc2nc(NCCc3cccc4cc[nH]c34)ncc2C#N)CCC1O (stereo partly shown) [Cmpd 217] | 100 to 800 nM | G (selectivity between 5- and 20-fold (selectivity level G)) |
| CC1(C)C[C@H](Nc2nc(NCCc3ccncc3)ncc2C#N)CC[C@@H]1O [Cmpd 280] | 100 to 800 nM | G (selectivity between 5- and 20-fold (selectivity level G)) |
| CC1(C)[C@@H](O)C[C@H]1Nc1nc(NCCc2ncon2)ncc1C#N [Cmpd 230] | 2000 to 10000 nM | H (selectivity level of 5-fold or less (selectivity level H)) |
| Cc1cc(C(F)(F)F)nn1CCNc1ncc(C#N)c(N[C@@H]2CC(O)C2(C)C)n1 (stereo partly shown) [Cmpd 225] | 2000 to 10000 nM | H (selectivity level of 5-fold or less (selectivity level H)) |
| CC1(C)C[C@H](Nc2nc(NCCc3cc(C(F)(F)F)ccn3)ncc2C#N)CC[C@@H]1O [Cmpd 326] | 100 to 800 nM | G (selectivity between 5- and 20-fold (selectivity level G)) |
| CC1(C)C[C@H](Nc2nc(NCCc3noc(C(F)(F)F)n3)ncc2C#N)CC[C@@H]1O [Cmpd 219] | 800 to 2000 nM | G (selectivity between 5- and 20-fold (selectivity level G)) |
| CN1C(=O)C(CCNc2ncc(C#N)c(N[C@@H]3CC[C@H](O)C(C)(C)C3)n2)c2ccccc21 (stereo partly shown) [Cmpd 300] | 800 to 2000 nM | G (selectivity between 5- and 20-fold (selectivity level G)) |
| CNC(=O)[C@H]1C[C@@H](Nc2nc(NCCc3c[nH]c4ccccc34)ncc2C#N)C1 [Cmpd 289] | 800 to 2000 nM | G (selectivity between 5- and 20-fold (selectivity level G)) |
| CC1(C)[C@H](O)CCC[C@H]1Nc1nc(NCCC2C(=O)Nc3ccccc32)ncc1C#N (stereo partly shown) [Cmpd 306] | 100 to 800 nM | H (selectivity level of 5-fold or less (selectivity level H)) |
| Cn1cc(CCNc2ncc(C#N)c(N[C@@H]3CC[C@H](O)C(C)(C)C3)n2)c2ccccc21 [Cmpd 292] | < 100 nM | F (selectivity of between 20- and 100-fold (selectivity level F)) |
| CC1(C)[C@@H](c2nc[nH]n2)C[C@H]1Nc1nc(NCCC2C(=O)Nc3ccccc32)ncc1C#N (stereo partly shown) [Cmpd 317] | < 100 nM | E (selectivity (Sel. Level=ratio of IC50 PKC-delta/IC50 PKC-theta) of >100-fold (selectivity level E)) |
| CC1(C)C[C@H](Nc2nc(NCCc3cncc(Cl)c3)ncc2C#N)CC[C@@H]1O [Cmpd 276] | 100 to 800 nM | F (selectivity of between 20- and 100-fold (selectivity level F)) |
| CC1(C)C(O)C[C@H]1Nc1nc(NCCc2cnccn2)ncc1C#N (stereo partly shown) [Cmpd 226] | 2000 to 10000 nM | H (selectivity level of 5-fold or less (selectivity level H)) |

| Compound | IC50 (His-PKC-theta) | Sel. Level (ratio of IC50 PKC-delta/IC50 PKC-theta) (PKC delta) |
| --- | --- | --- |
| CC1(C)[C@H](O)CCC[C@@H]1Nc1nc(NCCC2C(=O)Nc3ccc(F)cc32)ncc1C#N (stereo partly shown) [Cmpd 315] | 100 to 800 nM | G (selectivity between 5- and 20-fold (selectivity level G)) |
| CC1(C)[C@@H](Nc2nc(NCCC3C(=O)Nc4ccc(F)cc43)ncc2C#N)CCC[C@@H]1O (stereo partly shown) [Cmpd 313] | 100 to 800 nM | F (selectivity of between 20- and 100-fold (selectivity level F)) |
| CC1(C)C[C@H](Nc2nc(NCCn3cccn3)ncc2C#N)CC[C@@H]1O [Cmpd 211] | 2000 to 10000 nM | H (selectivity level of 5-fold or less (selectivity level H)) |
| CC1(C)C[C@H](Nc2nc(NCCc3cnoc3)ncc2C#N)CC[C@@H]1O [Cmpd 222] | 800 to 2000 nM | G (selectivity between 5- and 20-fold (selectivity level G)) |
| CC1(C)C[C@H](Nc2nc(NCC[C@@]3(C)C(=O)Nc4ccccc43)ncc2C#N)CC[C@@H]1O [Cmpd 304] | 100 to 800 nM | F (selectivity of between 20- and 100-fold (selectivity level F)) |
| CC1(C)[C@@H](O)C[C@H]1Nc1nc(NCCc2nc3ccccc3o2)ncc1C#N [Cmpd 242] | 2000 to 10000 nM | H (selectivity level of 5-fold or less (selectivity level H)) |
| COc1cncc(CCNc2ncc(C#N)c(N[C@@H]3CC[C@H](O)C(C)(C)C3)n2)c1 [Cmpd 329] | 100 to 800 nM | G (selectivity between 5- and 20-fold (selectivity level G)) |
| COc1cncc(CCNc2ncc(C#N)c(N[C@H]3CC[C@@H](O)CC3)n2)c1 [Cmpd 331] | 2000 to 10000 nM | H (selectivity level of 5-fold or less (selectivity level H)) |
| Cc1cccn1CCNc1ncc(C#N)c(N[C@H]2CC[C@@H](C(N)=O)CC2)n1 [Cmpd 324] | 800 to 2000 nM | G (selectivity between 5- and 20-fold (selectivity level G)) |
| CC1(C)[C@@H](O)C[C@H]1Nc1nc(NCCc2cccc3cc[nH]c23)ncc1C#N [Cmpd 229] | 800 to 2000 nM | G (selectivity between 5- and 20-fold (selectivity level G)) |
| CC1(C)[C@@H](O)CCC[C@H]1Nc1nc(NCCC2C(=O)Nc3ccc(F)cc32)ncc1C#N (stereo partly shown) [Cmpd 316] | < 100 nM | F (selectivity of between 20- and 100-fold (selectivity level F)) |
| CC(F)(F)COc1ncncc1CNc1ncc(C#N)c(N[C@@H]2CCC[C@@H](O)C2(C)C)n1 [Cmpd 297] | 100 to 800 nM | F (selectivity of between 20- and 100-fold (selectivity level F)) |
| CC(F)(F)COc1ncncc1CNc1ncc(C#N)c(N[C@H]2CCC[C@](C)(O)C2)n1 [Cmpd 285] | 2000 to 10000 nM | H (selectivity level of 5-fold or less (selectivity level H)) |
| CC1(C)C[C@H](Nc2nc(NCCc3cc(Cl)c[n+]([O-])c3)ncc2C#N)CC[C@@H]1O [Cmpd 275] | 800 to 2000 nM | G (selectivity between 5- and 20-fold (selectivity level G)) |
| CC1(C)[C@@H](Nc2nc(NCCC3C(=O)Nc4cc(F)ccc43)ncc2C#N)CCC[C@@H]1O (stereo partly shown) [Cmpd 309] | 800 to 2000 nM | G (selectivity between 5- and 20-fold (selectivity level G)) |
| CC1(C)C[C@H](Nc2nc(NCCc3cncc(C(F)(F)F)c3)ncc2C#N)CC[C@@H]1O [Cmpd 271] | 800 to 2000 nM | G (selectivity between 5- and 20-fold (selectivity level G)) |
| CN(C)C(=O)[C@H]1C[C@@H](Nc2nc(NCCc3c[nH]c4ccccc34)ncc2C#N)C1 [Cmpd 288] | 100 to 800 nM | G (selectivity between 5- and 20-fold (selectivity level G)) |
| CC1(C)C[C@H](Nc2nc(NCCn3cncn3)ncc2C#N)CC[C@@H]1O [Cmpd 223] | 2000 to 10000 nM | H (selectivity level of 5-fold or less (selectivity level H)) |
| CCOc1cc(CCNc2ncc(C#N)c(N[C@H]3CC[C@@H](O)CC3)n2)ccn1 [Cmpd 328] | 2000 to 10000 nM | H (selectivity level of 5-fold or less (selectivity level H)) |
| CC(F)(F)COc1ncncc1CNc1ncc(C#N)c(N[C@H]2CC3(C2)C[C@](C)(O)C3)n1 (stereo partly shown) [Cmpd 295] | 100 to 800 nM | F (selectivity of between 20- and 100-fold (selectivity level F)) |
